Target: T1, P2Y6 receptor (Homo sapiens, UniProt Q15077)
T1 construct: expressed in transfected cells; host or cells: 1321N1 human astrocytoma cells
Test: Activation of P2Y6 receptor: receptor-induced Ca2+ changes measured with fluo-4
Type: cell-based
Conditions: sodium salts of the test compounds; 1321N1 human astrocytoma cells expressing P2Y6; fluo-4 Ca2+ fluorescence; nonlinear curve fit; read-out: EC50 of synthetic compounds for activation of P2Y6 receptor
Method: Synthetic compounds were tested for activation of P2Y6 receptor by measuring receptor induced Ca^2+ changes with the fluorescent Ca^2+ indicator fluo-4. 1321N1 human astrocytoma cell lines either expressing P2Y2, P2Y4 or P2Y6. Receptors were plated into 24-well plates. Two days after plating, fluorometric measurements were made and responses of cells to a serial dilution of the sodium salts of the test compounds were determined. P2Y6 receptor mediated Ca^2+ fluorescent change was determined by normalized accumulation of fluorescent change of 3 timepoints after compound administration subtracted by value from ACSF control. Changes in fluorescent intensity were plotted corresponding to compound concentration in GraphPad.

T1 sequence (Q15077 whole entry): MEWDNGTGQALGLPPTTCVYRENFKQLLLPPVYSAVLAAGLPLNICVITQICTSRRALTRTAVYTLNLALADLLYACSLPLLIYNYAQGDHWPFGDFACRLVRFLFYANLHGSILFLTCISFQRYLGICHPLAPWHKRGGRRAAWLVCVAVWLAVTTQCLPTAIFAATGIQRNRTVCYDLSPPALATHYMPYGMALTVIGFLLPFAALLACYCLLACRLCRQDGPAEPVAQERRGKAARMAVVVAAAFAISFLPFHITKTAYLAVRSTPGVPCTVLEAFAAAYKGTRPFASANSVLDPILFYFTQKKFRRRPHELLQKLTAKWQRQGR

| SMILES | EC50 [µM] |
| --- | --- |
| O=c1ccn([C@@H]2O[C@H](COP(=O)(O)OP(=O)(O)O)C(O)C2O)c(=O)n1Cc1cccc(-c2ccccc2)n1 (stereo partly drawn) [Compound 30] | 1 to 2 |
| O=c1ccn([C@@H]2O[C@H](COP(=O)(O)OP(=O)(O)O)C(O)C2O)c(=O)n1Cc1ncccc1-c1ccccc1 (stereo partly drawn) [Compound 31] | > 2 |
| O=c1ccn([C@@H]2O[C@H](COP(=O)(O)OP(=O)(O)O)C(O)C2O)c(=O)n1Cc1cc(-c2ccncc2)ccn1 (stereo partly drawn) [Compound 32] | 1 to 2 |
| O=c1ccn([C@@H]2O[C@H](COP(=O)(O)OP(=O)(O)O)C(O)C2O)c(=O)n1Cc1cc(C2CCCC2)ccn1 (stereo partly drawn) [Compound 38] | 0.5 to 1 |
| O=c1ccn([C@@H]2O[C@H](COP(=O)(O)OP(=O)(O)O)C(O)C2O)c(=O)n1Cc1cc(C2CCCCC2)ccn1 (stereo partly drawn) [Compound 39] | 0.5 to 1 |
| O=c1ccn([C@@H]2O[C@H](COP(=O)(O)OP(=O)(O)O)C(O)C2O)c(=O)n1Cc1cc(N2CCCCC2)ccn1 (stereo partly drawn) [Compound 40] | > 2 |
| O=c1ccn([C@@H]2O[C@H](COP(=O)(O)OP(=O)(O)O)C(O)C2O)c(=O)n1Cc1cccc(-c2ccccc2)c1 (stereo partly drawn) [Compound 41] | < 0.5 |
| O=c1ccn([C@@H]2O[C@H](COP(=O)(O)OP(=O)(O)O)C(O)C2O)c(=O)n1Cc1ccc(-c2ccccc2)s1 (stereo partly drawn) [Compound 42] | < 0.5 |
| O=c1ccn([C@@H]2O[C@H](COP(=O)(O)OP(=O)(O)O)C(O)C2O)c(=O)n1Cc1ncc(-c2ccccc2)s1 (stereo partly drawn) [Compound 43] | < 0.5 |
| O=c1ccn([C@@H]2O[C@H](COP(=O)(O)OP(=O)(O)O)C(O)C2O)c(=O)n1Cc1cnc(-c2ccccc2)s1 (stereo partly drawn) [Compound 44] | 1 to 2 |
| O=c1ccn([C@@H]2O[C@H](COP(=O)(O)OP(=O)(O)O)C(O)C2O)c(=O)n1Cc1ncc(-c2ccccc2)o1 (stereo partly drawn) [Compound 45] | < 0.5 |
| O=c1ccn([C@@H]2O[C@H](COP(=O)(O)OP(=O)(O)O)C(O)C2O)c(=O)n1Cc1cnc(-c2ccccc2)o1 (stereo partly drawn) [Compound 46] | 0.5 to 1 |
| O=c1ccn([C@@H]2O[C@H](COP(=O)(O)OP(=O)(O)O)C(O)C2O)c(=O)n1Cc1ccc(-c2ccccc2)o1 (stereo partly drawn) [Compound 47] | < 0.5 |

The remaining lines, values ahead:

| EC50 [µM] | SMILES |
| --- | --- |
| < 0.5 | O=c1ccn([C@@H]2O[C@H](COP(=O)(O)OP(=O)(O)O)C(O)C2O)c(=O)n1Cc1ccc(-c2ccccc2)cn1 (stereo partly drawn) [Compound 29] |
| 0.5 to 1 | O=c1ccn([C@@H]2O[C@H](COP(=O)(O)OP(=O)(O)O)C(O)C2O)c(=O)n1Cc1cc(-c2ccccn2)ccn1 (stereo partly drawn) [Compound 34] |
| < 0.5 | O=c1ccn([C@@H]2O[C@H](COP(=O)(O)OP(=O)(O)O)C(O)C2O)c(=O)n1Cc1cc(Cc2ccccc2)ccn1 (stereo partly drawn) [Compound 35] |
| < 0.5 | O=c1ccn([C@@H]2O[C@H](COP(=O)(O)OP(=O)(O)O)C(O)C2O)c(=O)n1Cc1cc(Oc2ccccc2)ccn1 (stereo partly drawn) [Compound 36] |
| 0.5 to 1 | O=c1ccn([C@@H]2O[C@H](COP(=O)(O)OP(=O)(O)O)C(O)C2O)c(=O)n1Cc1cc(Nc2ccccc2)ccn1 (stereo partly drawn) [Compound 37] |
